Source: ChEMBL document CHEMBL1155271, “Synthesis, crystal structures and antibacterial activity studies of aza-derivatives of phytoalexin from cotton plant--gossypol” (2009)
Values after ≈ are worked out from the molar mass of the structure shown. Active and inactive are the calls of the source. The rule behind the calls is not given here.

Experiments:
Format in all cases: functional
[1] = system: Staphylococcus aureus; experiment: Antimicrobial activity against methicillin-resistant Staphylococcus aureus 218/7 by twofold dilution technique
[2] = system: Staphylococcus aureus; experiment: Antimicrobial activity against methicillin-resistant Staphylococcus aureus 144/6 by twofold dilution technique
[3] = system: Staphylococcus aureus; experiment: Antimicrobial activity against methicillin-resistant Staphylococcus aureus 143/6 by twofold dilution technique
[4] = system: Staphylococcus aureus; experiment: Antimicrobial activity against Staphylococcus aureus ATCC 25923 at 400 ug after 18 hrs by disk diffusion method; conditions: ATCC 25923, 18 h, read-out: DIZ
[5] = system: Staphylococcus aureus; experiment: Antimicrobial activity against Methicillin susceptible Staphylococcus aureus 212/7 by twofold dilution technique
[6] = system: Micrococcus luteus; experiment: Antimicrobial activity against Micrococcus luteus ATCC 9341 at 400 ug after 18 hrs by disk diffusion method
[7] = system: Bacillus cereus; experiment: Antimicrobial activity against Bacillus cereus ATCC 11778 after 18 hrs by twofold dilution technique; conditions: ATCC 11778, 18 h
[8] = system: Staphylococcus aureus; experiment: Antimicrobial activity against Staphylococcus aureus NCTC 4163 after 18 hrs by twofold dilution technique; conditions: NCTC 4163, 18 h
[9] = system: Bacillus subtilis; experiment: Antimicrobial activity against Bacillus subtilis ATCC 6633 after 18 hrs by twofold dilution technique; conditions: ATCC 6633, 18 h
[10] = system: Staphylococcus aureus; experiment: Antimicrobial activity against Methicillin susceptible Staphylococcus aureus 239/7 by twofold dilution technique
[11] = system: Enterococcus hirae; experiment: Antimicrobial activity against Enterococcus hirae ATCC 10541 at 400 ug after 18 hrs by disk diffusion method
[12] = system: Staphylococcus epidermidis; experiment: Antimicrobial activity against Staphylococcus epidermidis ATCC 12228 by twofold dilution technique
[13] = system: Bacillus cereus; experiment: Antimicrobial activity against Bacillus cereus ATCC 11778 at 400 ug after 18 hrs by disk diffusion method; conditions: ATCC 11778, 18 h, read-out: DIZ
[14] = system: Staphylococcus aureus; experiment: Antimicrobial activity against Methicillin susceptible Staphylococcus aureus 207/7 by twofold dilution technique
[15] = system: Enterococcus hirae; experiment: Antimicrobial activity against Enterococcus hirae ATCC 10541 after 18 hrs by twofold dilution technique; conditions: ATCC 10541, 18 h
[16] = system: Staphylococcus aureus; experiment: Antimicrobial activity against methicillin-resistant Staphylococcus aureus 217/7 by twofold dilution technique
[17] = system: Staphylococcus aureus; experiment: Antimicrobial activity against Methicillin susceptible Staphylococcus aureus 208/7 by twofold dilution technique
[18] = system: Staphylococcus aureus; experiment: Antimicrobial activity against Methicillin susceptible Staphylococcus aureus 238/7 by twofold dilution technique
[19] = system: Staphylococcus aureus; experiment: Antimicrobial activity against Staphylococcus aureus ATCC 25923 after 18 hrs by twofold dilution technique; conditions: ATCC 25923, 18 h
[20] = system: Staphylococcus aureus; experiment: Antimicrobial activity against Staphylococcus aureus ATCC 6538 at 400 ug after 18 hrs by disk diffusion method; conditions: ATCC 6538, 18 h, read-out: DIZ
[21] = system: Staphylococcus aureus; experiment: Antimicrobial activity against Methicillin susceptible Staphylococcus aureus 243/7 by twofold dilution technique
[22] = system: Staphylococcus aureus; experiment: Antimicrobial activity against methicillin-resistant Staphylococcus aureus 140/6 by twofold dilution technique
[23] = system: Staphylococcus aureus; experiment: Antimicrobial activity against methicillin-resistant Staphylococcus aureus 146/6 by twofold dilution technique
[24] = system: Staphylococcus epidermidis; experiment: Antimicrobial activity against Staphylococcus epidermidis ATCC 12228 at 400 ug after 18 hrs by disk diffusion method; conditions: ATCC 12228, 18 h, read-out: DIZ
[25] = system: Staphylococcus aureus; experiment: Antimicrobial activity against methicillin-resistant Staphylococcus aureus 200/7 by twofold dilution technique
[26] = system: Staphylococcus aureus; experiment: Antimicrobial activity against Staphylococcus aureus ATCC 29213 at 400 ug after 18 hrs by disk diffusion method; conditions: ATCC 29213, 18 h, read-out: DIZ
[27] = system: Staphylococcus aureus; experiment: Antimicrobial activity against Staphylococcus aureus ATCC 29213 after 18 hrs by twofold dilution technique; conditions: ATCC 29213, 18 h
[28] = system: Staphylococcus aureus; experiment: Antimicrobial activity against Methicillin susceptible Staphylococcus aureus 237/7 by twofold dilution technique
[29] = system: Micrococcus luteus; experiment: Antimicrobial activity against Micrococcus luteus ATCC 10240 by twofold dilution technique
[30] = system: Staphylococcus aureus; experiment: Antimicrobial activity against Methicillin susceptible Staphylococcus aureus 213/7 by twofold dilution technique
[31] = system: Bacillus subtilis; experiment: Antimicrobial activity against Bacillus subtilis ATCC 6633 at 400 ug after 18 hrs by disk diffusion method; conditions: ATCC 6633, 18 h, read-out: DIZ
[32] = system: Staphylococcus aureus; experiment: Antimicrobial activity against methicillin-resistant Staphylococcus aureus 141/6 by twofold dilution technique
[33] = system: Staphylococcus aureus; experiment: Antimicrobial activity against Methicillin susceptible Staphylococcus aureus 206/7 by twofold dilution technique
[34] = system: Micrococcus luteus; experiment: Antimicrobial activity against Micrococcus luteus ATCC 10240 at 400 ug after 18 hrs by disk diffusion method; conditions: ATCC 10240, 18 h, read-out: DIZ
[35] = system: Staphylococcus aureus; experiment: Antimicrobial activity against Staphylococcus aureus ATCC 6538 after 18 hrs by twofold dilution technique; conditions: ATCC 6538, 18 h
[36] = system: Staphylococcus aureus; experiment: Antimicrobial activity against Staphylococcus aureus NCTC 4163 at 400 ug after 18 hrs by disk diffusion method; conditions: NCTC 4163, 18 h, read-out: DIZ
[37] = system: Staphylococcus aureus; experiment: Antimicrobial activity against methicillin-resistant Staphylococcus aureus 236/7 by twofold dilution technique
[38] = system: Staphylococcus aureus; experiment: Antimicrobial activity against methicillin-resistant Staphylococcus aureus 136/6 by twofold dilution technique
[39] = system: Micrococcus luteus; experiment: Antimicrobial activity against Micrococcus luteus ATCC 9341 after 18 hrs by twofold dilution technique; conditions: ATCC 9341, 18 h
[40] = system: Staphylococcus aureus; experiment: Antimicrobial activity against Methicillin susceptible Staphylococcus aureus 242/7 by twofold dilution technique

| Structure (SMILES) | MIC [1] [µg/mL] | MIC [2] [µg/mL] | MIC [3] [µg/mL] | zone of inhibition at 400 µg/disc [4] [mm] | MIC [5] [µg/mL] | MIC [7] [µg/mL] | MIC [8] [µg/mL] | MIC [9] [µg/mL] | MIC [10] [µg/mL] | MIC [12] [µg/mL] | zone of inhibition at 400 µg/disc [13] [mm] | MIC [14] [µg/mL] | MIC [15] [µg/mL] | MIC [16] [µg/mL] | MIC [17] [µg/mL] | MIC [18] [µg/mL] | MIC [19] [µg/mL] | zone of inhibition at 400 µg/disc [20] [mm] | MIC [21] [µg/mL] | MIC [22] [µg/mL] | further results |
| --- | --- | --- | --- | --- | --- | --- | --- | --- | --- | --- | --- | --- | --- | --- | --- | --- | --- | --- | --- | --- | --- |
| COCCOCCN/N=C/c1c(O)c(O)c(C(C)C)c2cc(C)c(-c3c(C)cc4c(C(C)C)c(O)c(O)c(/C=N/NCCOCCOC)c4c3O)c(O)c12 | 200 (≈ 266 µM) | 200 (≈ 266 µM) | 400 (≈ 533 µM) | 12 | 400 (≈ 533 µM) | 100 (≈ 133 µM) | 200 (≈ 266 µM) | 400 (≈ 533 µM) | 400 (≈ 533 µM) | > 400 | 11 | 400 (≈ 533 µM) | 200 (≈ 266 µM) | 400 (≈ 533 µM) | 400 (≈ 533 µM) | 100 (≈ 133 µM) | 200 (≈ 266 µM) | 12 | 400 (≈ 533 µM) | 200 (≈ 266 µM) | diameter of the inhibition zone (DIZ) [6]: inactive; diameter of the inhibition zone (DIZ) [11]: inactive; MIC [23]: 200 µg/mL (≈ 266 µM); zone of inhibition at 400 µg/disc [24]: 12 mm; MIC [25]: 200 µg/mL (≈ 266 µM); zone of inhibition at 400 µg/disc [26]: 13 mm; MIC [27]: 100 µg/mL (≈ 133 µM); MIC [28]: 200 µg/mL (≈ 266 µM); MIC [29]: 200 µg/mL (≈ 266 µM); MIC [30]: 200 µg/mL (≈ 266 µM); zone of inhibition at 400 µg/disc [31]: 11 mm; MIC [32]: 200 µg/mL (≈ 266 µM); MIC [33]: 100 µg/mL (≈ 133 µM); zone of inhibition at 400 µg/disc [34]: 11 mm; MIC [35]: 100 µg/mL (≈ 133 µM); zone of inhibition at 400 µg/disc [36]: 12 mm; MIC [37]: 100 µg/mL (≈ 133 µM); MIC [38]: 100 µg/mL (≈ 133 µM); MIC [39]: 200 µg/mL (≈ 266 µM); MIC [40]: 50 µg/mL (≈ 66.6 µM) |
| Cc1cc2c(C(C)C)c(O)c(O)c(C=O)c2c(O)c1-c1c(C)cc2c(C(C)C)c(O)c(O)c(C=O)c2c1O [GOSSYPOL] | 50 (≈ 96.4 µM) | 50 (≈ 96.4 µM) | 50 (≈ 96.4 µM) | 15 | 50 (≈ 96.4 µM) | 25 (≈ 48.2 µM) | 50 (≈ 96.4 µM) | 100 (≈ 193 µM) | 25 (≈ 48.2 µM) | 100 (≈ 193 µM) | 15 | 50 (≈ 96.4 µM) | 25 (≈ 48.2 µM) | 50 (≈ 96.4 µM) | 50 (≈ 96.4 µM) | 25 (≈ 48.2 µM) | 25 (≈ 48.2 µM) | 14 | 25 (≈ 48.2 µM) | 50 (≈ 96.4 µM) | zone of inhibition at 400 µg/disc ([6]; ATCC 9341, 18 h, read-out: DIZ): 12 mm; zone of inhibition at 400 µg/disc ([11]; ATCC 10541, 18 h, read-out: DIZ): 14 mm; MIC [23]: 50 µg/mL (≈ 96.4 µM); zone of inhibition at 400 µg/disc [24]: 16 mm; MIC [25]: 50 µg/mL (≈ 96.4 µM); zone of inhibition at 400 µg/disc [26]: 15 mm; MIC [27]: 12.5 µg/mL (≈ 24.1 µM); MIC [28]: 25 µg/mL (≈ 48.2 µM); MIC [29]: 50 µg/mL (≈ 96.4 µM); MIC [30]: 50 µg/mL (≈ 96.4 µM); zone of inhibition at 400 µg/disc [31]: 15 mm; MIC [32]: 50 µg/mL (≈ 96.4 µM); MIC [33]: 25 µg/mL (≈ 48.2 µM); zone of inhibition at 400 µg/disc [34]: 16 mm; MIC [35]: 12.5 µg/mL (≈ 24.1 µM); zone of inhibition at 400 µg/disc [36]: 16 mm; MIC [37]: 50 µg/mL (≈ 96.4 µM); MIC [38]: 50 µg/mL (≈ 96.4 µM); MIC [39]: 25 µg/mL (≈ 48.2 µM); MIC [40]: 12.5 µg/mL (≈ 24.1 µM) |
